The values below come from patent US20250059172A1, “INDAZOLE COMPOUND AND PHARMACEUTICAL” (NIPPON SHINYAKU CO., LTD., priority 2021, published 2025).

The target in one assay is human mPGES-1 (Homo sapiens (Human), UniProt O14684). As to the kind of experiment: mPGES-1 inhibitory activity test. The class given is biochemical. The settings on record: for inhibition at 0.01 µM: 10 nM test compound; for inhibition at 0.1 µM: 100 nM test compound. In a few lines:
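PGE2 formation was quantified by HTRF and reported as percent inhibition at 10 and 100 nM compound or as IC50. The 60-second reaction at 4° C used 1 μM PGH2, after a 20-minute 4° C preincubation of compound (1% DMSO final) with glutathione-supplemented (2.5 mM, pH 7.4) microsomes. The microsomes were from transiently transfected CHO-K1 cells expressing human mPGES-1.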

The test system of another assay is human A549 cells. Nature of the assay: Inhibition test of PGE2 production using human A549 cells. Type of assay: cell-based. To be noted: IL-1β stimulated A549 cells, 24 h, PGE2 by HTRF, read-out: A549 cell inhibition of PGE2 production IC50. In a few lines:
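A549 cells were preincubated 60 min with compound in RPMI/3% FBS (0.1% DMSO final), then stimulated with IL-1β (5 ng/well) for 24 h at 37°C. PGE2 was measured by HTRF and PGF2a by EIA; activity was normalized to stimulated minus unstimulated controls, and IC50 derived.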

Structures are written as SMILES.

Usually inhibition stands for the change of the read-out against control, counted positive when it falls. The IC50 is the concentration needed to halve the response being measured.

Chain of human mPGES-1 (O14684 whole entry): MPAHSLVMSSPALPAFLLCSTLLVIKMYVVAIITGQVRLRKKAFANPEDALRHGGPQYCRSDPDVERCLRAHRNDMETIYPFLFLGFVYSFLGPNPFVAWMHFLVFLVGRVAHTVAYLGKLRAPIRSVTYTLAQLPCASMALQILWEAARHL

With `O=C(Nc1cccc2c1cnn2-c1ccc(F)cc1)c1cc(CNC(=O)C2(O)CC2)ccc1Cl` [Example 154, 2-Chloro-N-[1-(4-fluorophenyl)-1H-indazol-4-yl]-5-({[(1-hydroxycyclopropyl)carbonyl]amino}methyl)benzamide], at human mPGES-1, the inhibition at 0.01 µM turned out to be 58% and the inhibition at 0.1 µM was 89%. Further, the half-inhibitory concentration (IC50) in the assay on human A549 cells was determined as 17.6 nM.

Turning to `COCC(=O)NCc1ccc(Cl)c(C(=O)Nc2cccc3c2cnn3-c2ccc(F)cc2)c1` [Example 155, 2-Chloro-N-[1-(4-fluorophenyl)-1H-indazol-4-yl]-5-([(methoxyacetyl)amino]methyl)benzamide], at human mPGES-1, the inhibition at 0.01 µM is 100%. The IC50 in the assay with human A549 cells came out at 5.9 nM.

For `CC(C)(CO)C(=O)NCc1ccc(Cl)c(C(=O)Nc2cccc3c2cnn3-c2ccc(F)cc2)c1` [Example 156, 2-Chloro-N-[1-(4-fluorophenyl)-1H-indazol-4-yl]-5-([(3-hydroxy-2,2-dimethylpropanoyl)amino]methyl)benzamide], at human mPGES-1, the inhibition at 0.01 µM stood at 63% and the inhibition at 0.1 µM was 86%. The IC50 in the assay with human A549 cells is 7.1 nM.

With `O=C(Nc1cccc2c1cnn2-c1ccc(F)cc1)c1cc(CNS(=O)(=O)C2CC2)ccc1Cl` [Example 157, 2-Chloro-5-{[(cyclopropylsulfonyl)amino]methyl}-N-[1-(4-fluorophenyl)-1H-indazol-4-yl]benzamide], the inhibition at 0.01 µM on human mPGES-1 worked out at 100%. Also, the IC50 with human A549 cells was 14.6 nM.

With `CC(C)(C)C(=O)NCc1ccc(Cl)c(C(=O)Nc2cccc3c2cnn3-c2ccc(F)cc2)c1Cl` [Example 158, 2,6-Dichloro-3-{[(2,2-dimethylpropanoyl)amino]methyl}-N-[1-(4-fluorophenyl)-1H-indazol-4-yl]benzamide], on human mPGES-1, the inhibition at 0.01 µM was 49% and the inhibition at 0.1 µM came to 100%. In addition, the IC50 in the assay on human A549 cells is 1.6 nM.

Turning to `COc1cc(-n2ncc3c(NC(=O)c4cc(CNC(=O)CC(C)(C)C)ccc4Cl)cccc32)ccn1` [Example 159, 2-Chloro-5-{[(3,3-dimethylbutanoyl)amino]methyl}-N-[1-(2-methoxypyridin-4-yl)-1H-indazol-4-yl]benzamide], on human mPGES-1, the inhibition at 0.01 µM is 55% and the inhibition at 0.1 µM was 100%. Further, the IC50 in the assay on human A549 cells came out at 9.1 nM.

On to `COc1cc(-n2ncc3c(NC(=O)c4cc(CNC(=O)C(C)(C)CO)ccc4Cl)cccc32)ccn1` [Example 164, 2-Chloro-5-{[(3-hydroxy-2,2-dimethylpropanoyl)amino]methyl}-N-[1-(2-methoxypyridin-4-yl)-1H-indazol-4-yl]benzamide], for which, on human mPGES-1, the inhibition at 0.01 µM worked out at 69% and the inhibition at 0.1 µM was 100%. Also, in the assay with human A549 cells, the IC50 is 28.4 nM.

In the case of `COc1cc(-n2ncc3c(NC(=O)c4cc(CNS(=O)(=O)C5CC5)ccc4Cl)cccc32)ccn1` [Example 165, 2-Chloro-5-{[(cyclopropylsulfonyl)amino]methyl}-N-[1-(2-methoxypyridin-4-yl)-1H-indazol-4-yl]benzamide], at human mPGES-1, the inhibition at 0.01 µM came out at 80% and the inhibition at 0.1 µM was 96%. The IC50 in the assay on human A549 cells was 8.6 nM.

`O=C(Nc1cccc2c1cnn2-c1cncc(C(F)(F)F)c1)c1cc(CNC(=O)C2(C(F)(F)F)CC2)ccc1Cl` [Example 168, 2-Chloro-5-[({[1-(trifluoromethyl)cyclopropyl]carbonyl}amino)methyl]-N-{1-[5-(trifluoromethyl)pyridin-3-yl]-1H-indazol-4-yl}benzamide]: at human mPGES-1, the inhibition at 0.01 µM is 53% and the inhibition at 0.1 µM was 92%. The IC50 with human A549 cells is 1.2 nM.

With `CC(C)(CO)C(=O)NCc1ccc(Cl)c(C(=O)Nc2cccc3c2cnn3-c2cncc(C(F)(F)F)c2)c1` [Example 171, 2-Chloro-5-{[(3-hydroxy-2,2-dimethylpropanoyl)amino]methyl}-N-{1-[5-(trifluoromethyl)pyridin-3-yl]-1H-indazol-4-yl}benzamide], the inhibition at 0.1 µM on human mPGES-1 turned out to be 100%. The half-maximal inhibitory concentration (IC50) with human A549 cells worked out at 9.6 nM.

With `O=C(Nc1cccc2c1cnn2-c1cncc(C(F)(F)F)c1)c1cc(CNS(=O)(=O)C2CC2)ccc1Cl` [Example 172, 2-Chloro-5-{[(cyclopropylsulfonyl)amino]methyl}-N-{l-[5-(trifluoromethyl)pyridin-3-yl]-1H-indazol-4-yl}benzamide], the inhibition at 0.01 µM against human mPGES-1 came out at 100%. Further, the concentration for half-maximal inhibition (IC50) in the assay with human A549 cells was 5.6 nM.

As for `CC(C)(C)CC(=O)NCc1ccc(Cl)c(C(=O)Nc2cccc3c2cnn3-c2ccc(C(F)(F)F)nc2)c1` [Example 173, 2-Chloro-5-{[(3,3-dimethylbutanoyl)amino]methyl}-N-{1-[6-(trifluoromethyl)pyridin-3-yl]-1H-indazol-4-yl}benzamide], on human mPGES-1, the inhibition at 0.01 µM turned out to be 54% and the inhibition at 0.1 µM was determined as 86%. In addition, the IC50 in the assay on human A549 cells is 6.7 nM.

Consider `O=C(Nc1cccc2c1cnn2-c1ccc(C(F)(F)F)nc1)c1cc(CNC(=O)C2CCCC2)ccc1Cl` [Example 174, 2-Chloro-5-{[(cyclopentylcarbonyl)amino]methyl}-N-{1-[6-(trifluoromethyl)pyridin-3-yl]-1H-indazol-4-yl}benzamide], for which, on human mPGES-1, the inhibition at 0.01 µM was found to be 85% and the inhibition at 0.1 µM worked out at 86%. For the same molecule, the IC50 with human A549 cells was determined as 1.9 nM.

Take `O=C(Nc1cccc2c1cnn2-c1ccc(C(F)(F)F)nc1)c1cc(CNS(=O)(=O)C2CC2)ccc1Cl` [Example 179, 2-Chloro-5-{[(cyclopropylsulfonyl)amino]methyl}-N-{1-[6-(trifluoromethyl)pyridin-3-yl]-1H-indazol-4-yl}benzamide]: at human mPGES-1, the inhibition at 0.01 µM amounted to 59% and the inhibition at 0.1 µM worked out at 95%. In addition, in the assay with human A549 cells, the IC50 stood at 4.4 nM.

As to `CC(C)n1ncc2c(NC(=O)c3cc(CNC(=O)C4CCCC4)ccc3Cl)cccc21` [Example 180, 2-Chloro-5-{[(cyclopentylcarbonyl)amino]methyl}-N-[1-(propan-2-yl)-1H-indazol-4-yl]benzamide], the inhibition at 0.01 µM against human mPGES-1 came out at 75%. Also, the half-inhibitory concentration (IC50) in the assay on human A549 cells stood at 40.6 nM.

Consider `O=C(Nc1cccc2c1cnn2-c1cscn1)c1cc(CNC(=O)C2CCCC2)ccc1Cl` [Example 188, 2-Chloro-5-{[(cyclopentylcarbonyl)amino]methyl}-N-[1-(1,3-thiazol-4-yl)-1H-indazol-4-yl]benzamide], for which the inhibition at 0.01 µM on human mPGES-1 worked out at 68%. The IC50 in the assay with human A549 cells amounted to 102 nM.

As for `O=C(Nc1cccc2c1cnn2-c1cscn1)c1cc(CNC(=O)C2(C(F)(F)F)CC2)ccc1Cl` [Example 189, 2-Chloro-N-[1-(1,3-thiazol-4-yl)-1H-indazol-4-yl]-5-[({[1-(trifluoromethyl)cyclopropyl]carbonyl}amino)methyl]benzamide], the inhibition at 0.01 µM against human mPGES-1 worked out at 80%. The IC50 with human A549 cells was 23.6 nM.

For `CC(C)(CO)C(=O)NCc1ccc(Cl)c(C(=O)Nc2cccc3c2cnn3-c2cscn2)c1` [Example 192, 2-Chloro-5-{[(3-hydroxy-2,2-dimethylpropanoyl)amino]methyl}-N-[1-(1,3-thiazol-4-yl)-1H-indazol-4-yl]benzamide], at human mPGES-1, the inhibition at 0.01 µM came out at 70% and the inhibition at 0.1 µM was 90%. Also, in the assay on human A549 cells, the IC50 was 31.4 nM.

As to `O=C(Nc1cccc2c1cnn2-c1cscn1)c1cc(CNS(=O)(=O)C2CC2)ccc1Cl` [Example 193, 2-Chloro-5-{[(cyclopropylsulfonyl)amino]methyl}-N-[1-(1,3-thiazol-4-yl)-1H-indazol-4-yl]benzamide], at human mPGES-1, the inhibition at 0.01 µM amounted to 71%. In addition, in the assay on human A549 cells, the IC50 amounted to 33 nM.

As for `CC(C)(C)C(=O)NCc1ccc(C(F)(F)F)c(C(=O)Nc2cccc3c2cnn3-c2ccc(OC(F)(F)F)cc2)c1` [Example 194, 5-{[(2,2-Dimethylpropanoyl)amino]methyl}-N-{1-[4-(trifluoromethoxy)phenyl]-1H-indazol-4-yl}-2-(trifluoromethyl)benzamide], on human mPGES-1, the inhibition at 0.01 µM came to 62% and the inhibition at 0.1 µM came out at 83%. Moreover, the IC50 in the assay on human A549 cells turned out to be 0.7 nM.

`CC(C)(C)C(=O)NCc1ccc(C(F)(F)F)c(C(=O)Nc2cccc3c2cnn3-c2cccc(OC(F)(F)F)c2)c1` [Example 195, 5-{[(2,2-Dimethylpropanoyl)amino]methyl}-N-{1-[3-(trifluoromethoxy)phenyl]-1H-indazol-4-yl}-2-(trifluoromethyl)benzamide]: on human mPGES-1, the inhibition at 0.01 µM was determined as 65% and the inhibition at 0.1 µM is 84%. The IC50 with human A549 cells was determined as 0.8 nM.

On to `CC(C)(C)C(=O)NCc1ccc(C(F)(F)F)c(C(=O)Nc2cccc3c2cnn3-c2ccc(C(F)(F)F)nc2)c1` [Example 196, 5-{[(2,2-Dimethylpropanoyl)amino]methyl}-2-(trifluoromethyl)-N-{1-[6-(trifluoromethyl)pyridin-3-yl]-1H-indazol-4-yl}benzamide], for which, at human mPGES-1, the inhibition at 0.01 µM stood at 60% and the inhibition at 0.1 µM is 78%. In the assay on human A549 cells, the IC50 was determined as 2 nM.

Regarding `Cc1ccc(-n2ncc3c(NC(=O)c4cc(CNC(=O)C(C)(C)C)ccc4C(F)(F)F)cccc32)cc1Cl` [Example 200, N-[1-(3-chloro-4-methylphenyl)-1H-indazol-4-yl]-5-{[(2,2-dimethylpropanoyl)amino]methyl}-2-(trifluoromethyl)benzamide], at human mPGES-1, the inhibition at 0.01 µM worked out at 69% and the inhibition at 0.1 µM was determined as 103%. Moreover, the IC50 with human A549 cells is 0.9 nM.

Regarding `CC(C)(C)C(=O)NCc1ccc(C(F)(F)F)c(C(=O)Nc2cccc3c2cnn3-c2cscn2)c1` [Example 201, 5-{[(2,2-Dimethylpropanoyl)amino]methyl}-N-[1-(1,3-thiazol-4-yl)-1H-indazol-4-yl]-2-(trifluoromethyl)benzamide], at human mPGES-1, the inhibition at 0.01 µM is 85% and the inhibition at 0.1 µM is 97%. Also, the IC50 with human A549 cells was found to be 20.1 nM.
